The values below come from ChEMBL document CHEMBL1136286, “Unexpected enhancement of thrombin inhibitor potency with o-aminoalkylbenzylamides in the P1 position” (Bioorg Med Chem Lett, 2003).

Some results are limits rather than exact numbers.

In assay [1] the target is T1, Serine protease 1 (Homo sapiens, UniProt P07477). Put plainly: Ratio of inhibitory constant evaluated against trypsin to that of thrombin (Factor IIa).
Assay [2] addresses T1, Serine protease 1. The assay can be described thus: Inhibitory constant evaluated against trypsin.
The target of assay [3] is Prothrombin (Homo sapiens, UniProt P00734). Put plainly: Inhibitory constant evaluated against thrombin (Factor IIa).
Assay [4] is filed under the species Homo sapiens. Put plainly: Concentration needed to double the activated partial thromboplastin time in human plasma. Type of assay: functional.

T1 sequence (P07477 whole entry): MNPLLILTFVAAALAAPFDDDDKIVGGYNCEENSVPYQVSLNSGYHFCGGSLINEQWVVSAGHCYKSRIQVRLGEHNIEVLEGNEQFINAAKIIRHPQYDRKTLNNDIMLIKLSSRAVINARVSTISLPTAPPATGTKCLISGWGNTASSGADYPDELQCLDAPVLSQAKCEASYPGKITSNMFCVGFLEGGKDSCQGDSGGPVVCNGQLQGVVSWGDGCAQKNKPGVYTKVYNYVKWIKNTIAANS

Turning to `Cc1ccc(NS(=O)(=O)Cc2ccccc2)c(=O)n1CC(=O)NCc1ccccc1`, the Selectivity ratio in assay [1] is 3580. Further, in assay [2], the affinity corresponds to a Ki of 466 µM.

With `Cc1ccc(NS(=O)(=O)Cc2ccccc2)c(=O)n1CC(=O)NCc1ccccc1CN`, the Selectivity ratio in assay [1] turned out to be 12900. Also, the Ki (in general, a measure of affinity in units of concentration, obtained from inhibition or displacement) in assay [3] worked out at 5.2 nM; in assay [2], 67 µM. Also, the “2x APTT” value in assay [4] stood at 0.44 µM.

For `NCc1ccc(Cl)cc1CNC(=O)[C@@H]1CCCN1C(=O)[C@H](N)Cc1ccccc1`, the Selectivity ratio in assay [1] was determined as 1910. For the same compound, the figures for the Ki in assay [3] and in assay [2] were 3.3 nM and 6.2 µM, respectively. Also, in assay [4], the “2x APTT” value turned out to be 0.34 µM.

For `Cc1ccc(NS(=O)(=O)Cc2ccccc2)c(=O)n1CC(=O)NCc1cc(Cl)ccc1CCN`, in assay [1], the Selectivity ratio was determined as 740000. In addition, the Ki in assay [3] was found to be 0.05 nM; in assay [2], 37 µM. In addition, the “2x APTT” value in assay [4] turned out to be 0.18 µM.

Regarding `Cc1ccc(NS(=O)(=O)Cc2ccccc2)c(=O)n1CC(=O)NCc1ccc(CN)cc1`, the Selectivity ratio in assay [1] was found to be 26.5. Besides, the Ki turned out to be 49 nM in assay [3] and 1.3 µM in assay [2].

Regarding `NCc1ccc(Cl)cc1CNC(=O)Cn1c(Cl)cnc(NCC(F)(F)c2cccc[n+]2[O-])c1=O`, the Ki came to 0.0034 nM in assay [3] and 0.415 µM in assay [2]. For the same compound, the “2x APTT” value in assay [4] was determined as 0.13 µM.

For the compound `NCCc1ccc(Cl)cc1CNC(=O)[C@@H]1CCCN1C(=O)[C@H](N)Cc1ccccc1`, in assay [1], the Selectivity ratio worked out at 4060. The Ki in assay [3] was determined as 62 nM; in assay [2], 252 µM.

Regarding `Cc1nc(N)ccc1CNC(=O)Cn1c(C)cnc(NCCc2ccccc2)c1=O` [L-375378], the Selectivity ratio in assay [1] was 1910. For the same compound, in assay [4], the “2x APTT” value was 0.41 µM.

For `Cc1ccc(NS(=O)(=O)Cc2ccccc2)c(=O)n1CC(=O)NCc1cccc(Cl)c1`, in assay [1], the Selectivity ratio is 2790. Besides, the Ki in assay [3] amounted to 7.1 nM; in assay [2] it was 20 µM. Moreover, the “2x APTT” value in assay [4] was found to be 2.8 µM.

Consider `COc1ccc2cc(S(=O)(=O)NC(Cc3ccc(CN)cc3)C(=O)N(C)C3CCCC3)ccc2c1` (configuration not stated), for which the Ki in assay [3] was 6.6 nM; in assay [2] it was 14.2 µM.

Consider `N[C@H](Cc1ccccc1)C(=O)N1CCC[C@H]1C(=O)NCc1ccccc1`, for which the Selectivity ratio in assay [1] is more than 217. Also, in assay [2], the Ki is more than 1000 µM.

Turning to `Cc1cnc(NCCc2ccccc2)c(=O)n1CC(=O)NCc1cc(Cl)ccc1CN`, the Selectivity ratio in assay [1] is 12300. The results for the Ki in assay [3] and in assay [2] were 0.13 nM and 1.6 µM, respectively. The “2x APTT” value in assay [4] was 0.41 µM.

For `Cc1ccc(NS(=O)(=O)Cc2ccccc2)c(=O)n1CC(=O)NCc1ccccc1N`, the Selectivity ratio in assay [1] is more than 2130. Moreover, the Ki in assay [3] is 470 nM; in assay [2], more than 1000 µM.

`Cc1cc(CNC(=O)[C@@H]2CCCN2C(=O)[C@H](N)C(c2ccccc2)c2ccccc2)c(C)cc1CN` registered a Ki in assay [3] of 39 nM.

Regarding `CN(C(=O)C(Cc1ccc(CN)cc1)NS(=O)(=O)c1ccc2c(c1)CCCCC2)C1CCCC1` (configuration not stated), the Ki in assay [3] was determined as 3.3 nM; in assay [2], 6.3 µM.

With `NCc1ccccc1CNC(=O)[C@@H]1CCCN1C(=O)[C@H](N)Cc1ccccc1`, the Selectivity ratio in assay [1] amounted to 339. Further, the Ki in assay [3] amounted to 313 nM; in assay [2], 106 µM.

For the compound `Cc1ccc(NS(=O)(=O)Cc2ccccc2)c(=O)n1CC(=O)NCc1ccccc1CCN`, the Selectivity ratio in assay [1] worked out at 107000. Moreover, the Ki in assay [3] worked out at 4.1 nM; in assay [2], 437 µM. For the same compound, in assay [4], the “2x APTT” value was determined as 0.53 µM.

Regarding `Cc1ccc(NS(=O)(=O)Cc2ccccc2)c(=O)n1CC(=O)NCc1cc(Cl)ccc1CN`, the Selectivity ratio in assay [1] is 40200. Also, the Ki in assay [3] was determined as 0.046 nM; in assay [2], 1.85 µM. Also, the “2x APTT” value in assay [4] amounted to 0.16 µM.

Consider `N[C@H](Cc1ccccc1)C(=O)N1CCC[C@H]1C(=O)NCc1cccc(Cl)c1`, for which the Selectivity ratio in assay [1] was determined as 356. The Ki in assay [3] is 250 nM; in assay [2], 89 µM.

As for `Cc1nc(N)ccc1CNC(=O)Cn1c(C)ccc(NS(=O)(=O)Cc2ccccc2)c1=O` [L-374087], in assay [1], the Selectivity ratio amounted to 6400. For the same compound, in assay [4], the “2x APTT” value was found to be 0.22 µM.

On to `Cc1ccc(NS(=O)(=O)Cc2ccccc2)c(=O)n1CC(=O)NCc1cccc(CN)c1`, for which the Selectivity ratio in assay [1] is 46.9. The Ki in assay [3] came to 490 nM; in assay [2] it was 23 µM.
